Measurements taken from patent US9970929B2, “Voriconazole immunoassays” (ARK Diagnostics, Inc., priority 2013, dated 2018).

Key:
antibody Ab15461(P3) = test: homogeneous enzyme immunoassay for voriconazole (conjugate VOR-8 G6PDH, HITACHI 917), calibration and crossreactivity; format: binding, rabbit; conditions: for cross reaction with antibody Ab15461(P3), in words: summary of Tables 2 and 3
Description: Antibodies obtained using any of the disclosed techniques are screened or purified not only for their ability to react with voriconazole, but for a low cross-reactivity with potential interfering substances. “Cross-reactivity” may be determined in a quantitative immunoassay by establishing a standard curve using known dilutions of the target analyte, voriconazole. The standard curve is then used to calculate the apparent concentration of the interfering substance present in various known amounts in samples assayed under similar condition. The cross-reactivity can be calculated as the apparent concentration divided by the actual concentration multiplied by 100. A certain immunoassay for determining cross-reactivity is a homogeneous enzyme immunoassay using a wild type G6PDH as described in U.S. Pat. No. 3,817,837 or mutant G6PDH engineered to contain a cysteine per subunit as described in U.S. Pat. Nos. 6,033,890, 6,090,567 and 6,455,288. Furthermore, the cross-reactivity can be determined in the same type of immunoassay in which the antibody will ultimately be used.
Rabbit polyclonal antibody Ab15461(P3) was used to measure a substantial change in enzyme activity, generate a calibration curve, and evaluate assay precision, accuracy and specificity. The antibody was added into the antibody diluent to prepare the antibody reagent. The antibody reagent consisted of antibody as prepared above, buffer, stabilizers, preservatives, and the substrates for the enzyme conjugate nicotinamide adenine dinucleotide (NAD^+) and glucose-6-phosphate. Enzyme conjugate including compound VOR-8 G6PDH was added into the conjugate diluent to prepare the enzyme conjugate reagent. The enzyme conjugate reagent included the conjugate, buffer, stabilizers and preservatives. Enzyme conjugate VOR-8 G6PDH was used with rabbit polyclonal antibody Ab15461(P3) in examples below. This technique is generally applicable to produce polyclonal antibodies to voriconazole derivatives and assess their utility.
The voriconazole antibodies and enzyme conjugates may be used in a homogeneous assay format to detect voriconazole samples. An instrument useful to set up the assay is Hitachi 917 Analyzer (Roche). Voriconazole containing sample is incubated with antibody reagent followed by the addition of the enzyme conjugate reagent. The enzyme conjugate activity decreases upon binding to the antibody. The enzyme conjugate, which is not bound to the antibody, catalyzes the oxidation of glucose 6-phosphate (G6P). The oxidation of G6P is coupled with the reduction of NAD^+ to NADH, which can be measured at 340 nm. The change in the absorbance at 340 nm can be measured spectrophotometrically. The voriconazole concentration in a sample can be measured in terms of G6PDH activity. The increase in the rate at 340 nm is due to the formation of NADH and is proportional to the enzyme conjugate activity. An assay curve is generated using voriconazole added into serum negative for voriconazole. The assay rate increases with increasing the concentration of free drug in the sample.
Voriconazole was dissolved in methanol to give a stock solution of 1000 μg/mL. Pooled human serum was aliquoted in 10 mL portions. Voriconazole stock solution was added to the aliquots of human serum in preparing a series of known concentrations of voriconazole calibrators ranging from 0 to 16 μg/mL. The assay was performed using Enzyme Conjugate Reagent NB051:79 containing conjugate VOR-8 G6PDH and Antibody Reagent NB051:79 containing antibody Ab15461(P3). Calibration curves were generated on the HITACHI 917 automated clinical chemistry analyzer, as described in Example 10 by measuring each level in duplicate.
The major metabolic pathway of voriconazole is an enzymatic oxidation of voriconazole. […] The voriconazole metabolite, N-oxide voriconazole was tested in the immunoassay for potential cross reactivity. […]

antifungal activity = conditions: in vitro, versus voriconazole; cited from earlier work
[1] = antifungal triazole 20 μg/mL added to voriconazole 10 μg/mL in human serum

With `CC[C@@H]([C@H](C)O)n1ncn(-c2ccc(N3CCN(c4ccc(OC[C@@H]5CO[C@@](Cn6cncn6)(c6ccc(F)cc6F)C5)cc4)CC3)cc2)c1=O` [Posaconazole] the “Cross-reactivity (%)” value (antibody Ab15461(P3); [1]) was −2.5% and the “cross reaction with antibody Ab15461(P3), in words” value (“cross reaction” for short) (antibody Ab15461(P3)) was “did not significantly crossreact”.

In the case of `C[C@@H](c1nc[n+]([O-])cc1F)[C@](O)(Cn1cncn1)c1ccc(F)cc1F` [Vor-N-Oxide, 4-((2S,3R)-3-(2,4-difluorophenyl)-3-hydroxy-4-(1H-1,2,4-triazol-1-yl)butan-2-yl)-5-fluoropyrimidine 1-oxide], the “antifungal potency, fold less potent than the parent drug” value (antifungal activity) is listed as 100 fold, the “Cross-reactivity (%)” value (antibody Ab15461(P3); Vor-N-Oxide 5 μg/mL added to voriconazole 10 μg/mL in human serum, 100 × (mean Test − mean Control) ÷ conc. tested) is listed as 6.7% and the “Cross-reactivity (%)” value (antibody Ab15461(P3); Vor-N-Oxide 15 μg/mL added to voriconazole 10 μg/mL in human serum) is listed as 6.7%. The “cross reaction” value (antibody Ab15461(P3)) was “does not cross react significantly”.

In the case of `OC(Cn1cncn1)(Cn1cncn1)c1ccc(F)cc1F` [Fluconazole], the “Cross-reactivity (%)” value (antibody Ab15461(P3); [1]) is reported as 2.7% and the “cross reaction” value (antibody Ab15461(P3)) is reported as “did not significantly crossreact”.

In the case of `CCC(C)n1ncn(-c2ccc(N3CCN(c4ccc(OCC5COC(Cn6cncn6)(c6ccc(Cl)cc6Cl)O5)cc4)CC3)cc2)c1=O` (stereo not drawn) [Itrconazole, Itraconazole], the “Cross-reactivity (%)” value (antibody Ab15461(P3); [1]) is reported as 1.2% and the “cross reaction” value (antibody Ab15461(P3)) is reported as “did not significantly crossreact”.

For `C[C@@H](c1ncncc1F)[C@](O)(Cn1cncn1)c1ccc(F)cc1F` [Voriconazole, (2R,3S)-2-(2,4-difluorophenyl)-3-(5-fluoro-4-pyrimidinyl)-1-(1H-1,2,4-triazol-1-yl)-2-butanol], the “Reaction Rate (mA/min) Average of Duplicates” value (from here on “Reaction Rate (mA/min) Average”) (antibody Ab15461(P3); voriconazole 1.0 μg/mL calibrator in pooled human serum) was 327.2 mA/min, the “Reaction Rate (mA/min) Average” value (antibody Ab15461(P3); voriconazole 2.0 μg/mL calibrator in pooled human serum) was 337.4 mA/min and the “Reaction Rate (mA/min) Average” value (antibody Ab15461(P3); voriconazole 4.0 μg/mL calibrator in pooled human serum) was 349.6 mA/min. The “Reaction Rate (mA/min) Average” value (antibody Ab15461(P3); voriconazole 8.0 μg/mL calibrator in pooled human serum) was 362.4 mA/min and the “Reaction Rate (mA/min) Average” value (antibody Ab15461(P3); voriconazole 16.0 μg/mL calibrator in pooled human serum) was 380.4 mA/min.
